Source: US20110295343A1, “NEAR-INFRARED ELECTROMAGNETIC MODIFICATION OF CELLULAR STEADY-STATE MEMBRANE POTENTIALS” (priority 2008, published 2011)
Values joined by “and” are separate entries in the source; they are usually repeats but may differ in a detail not shown here. Equal entries are not always repeated.

System: MRSA (ATCC BAA-43)
Assay: MRSA/antimicrobial potentiation, CFU on TSB agar with and without antibiotic after laser (Example XXII, Experiments 1-4)
Assay type: cell-based, Staphylococcus aureus subsp. aureus
Conditions: for CFU/ml / AVG / CFU: agar with 30 μg/ml methicillin; for AVG: mean of plates; for CFU: replicate plates; for Meth Effect: CFU with methicillin / without; for Laser Effect (+Meth) / Laser Effect (+M): both on 30 μg/ml methicillin
Description: Four separate experiments have been performed.
Eight different laser dosages were used to treat a saline-suspension of logarithmically growing MRSA, labeled A1 to H1.
The treated and a control untreated suspension were diluted and plated in triplicate on trypic soy agar with or without 30 μg/ml methicillin After 24 hrs of growth at 37° C. colonies were counted.
CFU (colony forming units) were compared between the plates with and without methicillin for both control (untreated) and treated MRSA.
The treated and a control untreated suspension were diluted and plated in triplicate on trypic soy agar with or without 30 μg/mlmethicillin.
After 24 hrs of growth at 37° C. colonies were counted.
The treated and a control untreated suspension were diluted and plated in pentuplicate on trypic soy agar with or without 30 μg/ml methicillin.

With `COc1cccc(OC)c1C(=O)N[C@@H]1C(=O)N2[C@@H]1SC(C)(C)[C@@H]2C(=O)O` [Methicillin] as the compound, how does the CFU/ml (Exp#2 C2 Cont (no laser)) read?
Its CFU/ml is 1.66E+08 CFU/ml.

What about the AVG (Exp#2 C2 Cont (no laser)) of the same compound?
Its AVG is 55.3 CFU.

What about the CFU (Exp#2 C2 Cont (no laser)) of the same compound?
Its CFU is 42 CFU and 71 CFU and 53 CFU.

And the “Meth Effect” value (Exp#2 C2 Exp (laser treated))?
The value was 0.31.

And the CFU/ml (Exp#2 C2 Exp (laser treated))?
Its CFU/ml is 3.80E+07 CFU/ml.

What about the AVG (Exp#2 C2 Exp (laser treated)) of the same compound?
The AVG was 12.7 CFU.

And the CFU (Exp#2 C2 Exp (laser treated))?
Its CFU is 16 CFU and 12 CFU and 10 CFU.

What about the “Laser Effect (+Meth)” value (Exp#2 D2, laser Exp / Cont) of the same compound?
Its value is 0.04.

What about the “Meth Effect” value (Exp#2 D2 Cont (no laser)) of the same compound?
Its value is 0.61.

And the CFU/ml (Exp#2 D2 Cont (no laser))?
Its CFU/ml is 1.56E+08 CFU/ml.

What about the AVG (Exp#2 D2 Cont (no laser)) of the same compound?
Its AVG is 52 CFU.

And the CFU (Exp#2 D2 Cont (no laser))?
Its CFU is 20 CFU and 65 CFU and 71 CFU.

And the “Meth Effect” value (Exp#2 D2 Exp (laser treated))?
Its value is 0.25.

And the CFU/ml (Exp#2 D2 Exp (laser treated))?
The CFU/ml was 7.00E+06 CFU/ml.

What about the AVG (Exp#2 D2 Exp (laser treated)) of the same compound?
Its AVG is 2.3 CFU.

What about the CFU (Exp#2 D2 Exp (laser treated)) of the same compound?
Its CFU is 5 CFU and 1 CFU (2×).

And the “Laser Effect (+Meth)” value (Exp#2 E2, laser Exp / Cont)?
Its value is 0.04.

And the “Meth Effect” value (Exp#2 E2 Cont (no laser))?
Its value is 1.04.

And the CFU/ml (Exp#2 E2 Cont (no laser))?
The CFU/ml was 1.87E+08 CFU/ml.

And the AVG (Exp#2 E2 Cont (no laser))?
Its AVG is 62.3 CFU.

And the CFU (Exp#2 E2 Cont (no laser))?
Its CFU is 68 CFU and 66 CFU and 53 CFU.

What about the “Meth Effect” value (Exp#2 E2 Exp (laser treated)) of the same compound?
Its value is 0.24.

What about the CFU/ml (Exp#2 E2 Exp (laser treated)) of the same compound?
Its CFU/ml is 8.00E+06 CFU/ml.

And the AVG (Exp#2 E2 Exp (laser treated))?
The AVG was 2.7 CFU.

And the CFU (Exp#2 E2 Exp (laser treated))?
The CFU was 2 CFU (2×) and 4 CFU.

And the “Laser Effect (+Meth)” value (Exp#2 F2, laser Exp / Cont)?
Its value is 0.22.

And the “Meth Effect” value (Exp#2 F2 Cont (no laser))?
Its value is 0.81.

And the CFU/ml (Exp#2 F2 Cont (no laser))?
The CFU/ml was 2.13E+08 CFU/ml.

And the AVG (Exp#2 F2 Cont (no laser))?
The AVG was 71 CFU.

What about the CFU (Exp#2 F2 Cont (no laser)) of the same compound?
Its CFU is 62 CFU and 64 CFU and 87 CFU.

And the “Meth Effect” value (Exp#2 F2 Exp (laser treated))?
The value was 0.38.

And the CFU/ml (Exp#2 F2 Exp (laser treated))?
The CFU/ml was 4.70E+07 CFU/ml.

What about the AVG (Exp#2 F2 Exp (laser treated)) of the same compound?
The AVG was 15.7 CFU.

What about the CFU (Exp#2 F2 Exp (laser treated)) of the same compound?
Its CFU is 13 CFU and 15 CFU and 19 CFU.

What about the “Laser Effect (+Meth)” value (Exp#2 G2, laser Exp / Cont) of the same compound?
Its value is 0.1.

And the “Meth Effect” value (Exp#2 G2 Cont (no laser))?
The value was 1.04.

What about the CFU/ml (Exp#2 G2 Cont (no laser)) of the same compound?
The CFU/ml was 2.50E+08 CFU/ml.

And the AVG (Exp#2 G2 Cont (no laser))?
The AVG was 83.3 CFU.

What about the CFU (Exp#2 G2 Cont (no laser)) of the same compound?
Its CFU is 75 CFU and 92 CFU and 83 CFU.

And the “Meth Effect” value (Exp#2 G2 Exp (laser treated))?
Its value is 0.3.

And the CFU/ml (Exp#2 G2 Exp (laser treated))?
Its CFU/ml is 2.50E+07 CFU/ml.

And the AVG (Exp#2 G2 Exp (laser treated))?
Its AVG is 8.3 CFU.

What about the CFU (Exp#2 G2 Exp (laser treated)) of the same compound?
The CFU was 10 CFU and 7 CFU and 8 CFU.

And the “Laser Effect (+Meth)” value (Exp#2 H2, laser Exp / Cont)?
The value was 0.17.

And the “Meth Effect” value (Exp#2 H2 Cont (no laser))?
Its value is 0.73.

And the CFU/ml (Exp#2 H2 Cont (no laser))?
Its CFU/ml is 2.30E+08 CFU/ml.

And the AVG (Exp#2 H2 Cont (no laser))?
Its AVG is 76.7 CFU.

And the CFU (Exp#2 H2 Cont (no laser))?
The CFU was 76 CFU and 72 CFU and 82 CFU.

What about the “Meth Effect” value (Exp#2 H2 Exp (laser treated)) of the same compound?
Its value is 0.45.

What about the CFU/ml (Exp#2 H2 Exp (laser treated)) of the same compound?
The CFU/ml was 3.80E+07 CFU/ml.

And the AVG (Exp#2 H2 Exp (laser treated))?
The AVG was 12.7 CFU.

And the CFU (Exp#2 H2 Exp (laser treated))?
The CFU was 13 CFU (2×) and 12 CFU.

What about the “Laser Effect (+M)” value (Exp#3 A3, laser Exp / Cont) of the same compound?
Its value is 0.33.

And the “Meth Effect” value (Exp#3 A3 Cont (no laser))?
Its value is 1.03.

And the CFU/ml (Exp#3 A3 Cont (no laser))?
Its CFU/ml is 1.45E+08 CFU/ml.

What about the AVG (Exp#3 A3 Cont (no laser)) of the same compound?
The AVG was 48.4 CFU.

What about the “Meth Effect” value (Exp#3 A3 Exp (laser treated)) of the same compound?
Its value is 0.52.

And the CFU/ml (Exp#3 A3 Exp (laser treated))?
The CFU/ml was 4.86E+07 CFU/ml.

And the AVG (Exp#3 A3 Exp (laser treated))?
Its AVG is 16.2 CFU.

What about the “Laser Effect (+M)” value (Exp#3 B3, laser Exp / Cont) of the same compound?
Its value is 0.27.

What about the “Meth Effect” value (Exp#3 B3 Cont (no laser)) of the same compound?
The value was 0.99.

And the CFU/ml (Exp#3 B3 Cont (no laser))?
Its CFU/ml is 2.14E+08 CFU/ml.

And the AVG (Exp#3 B3 Cont (no laser))?
The AVG was 71.4 CFU.

And the “Meth Effect” value (Exp#3 B3 Exp (laser treated))?
Its value is 0.61.

What about the CFU/ml (Exp#3 B3 Exp (laser treated)) of the same compound?
Its CFU/ml is 5.70E+07 CFU/ml.

What about the AVG (Exp#3 B3 Exp (laser treated)) of the same compound?
Its AVG is 19 CFU.

What about the “Laser Effect (+M)” value (Exp#3 C3, laser Exp / Cont) of the same compound?
The value was 0.35.

What about the “Meth Effect” value (Exp#3 C3 Cont (no laser)) of the same compound?
Its value is 1.01.

And the CFU/ml (Exp#3 C3 Cont (no laser))?
Its CFU/ml is 1.75E+08 CFU/ml.

What about the AVG (Exp#3 C3 Cont (no laser)) of the same compound?
The AVG was 58.4 CFU.

And the “Meth Effect” value (Exp#3 C3 Exp (laser treated))?
The value was 0.53.

And the CFU/ml (Exp#3 C3 Exp (laser treated))?
The CFU/ml was 6.06E+07 CFU/ml.

What about the AVG (Exp#3 C3 Exp (laser treated)) of the same compound?
Its AVG is 20.2 CFU.

What about the “Laser Effect (+M)” value (Exp#3 D3, laser Exp / Cont) of the same compound?
The value was 0.07.

And the “Meth Effect” value (Exp#3 D3 Cont (no laser))?
Its value is 1.01.

What about the CFU/ml (Exp#3 D3 Cont (no laser)) of the same compound?
Its CFU/ml is 1.54E+08 CFU/ml.

And the AVG (Exp#3 D3 Cont (no laser))?
Its AVG is 51.2 CFU.

And the “Meth Effect” value (Exp#3 D3 Exp (laser treated))?
Its value is 0.39.

And the CFU/ml (Exp#3 D3 Exp (laser treated))?
The CFU/ml was 1.08E+07 CFU/ml.

What about the AVG (Exp#3 D3 Exp (laser treated)) of the same compound?
The AVG was 3.6 CFU.

And the “Laser Effect (+M)” value (Exp#3 E3, laser Exp / Cont)?
Its value is 0.47.

What about the “Meth Effect” value (Exp#3 E3 Cont (no laser)) of the same compound?
Its value is 0.92.

And the CFU/ml (Exp#3 E3 Cont (no laser))?
Its CFU/ml is 1.52E+08 CFU/ml.

And the AVG (Exp#3 E3 Cont (no laser))?
Its AVG is 50.6 CFU.

What about the “Meth Effect” value (Exp#3 E3 Exp (laser treated)) of the same compound?
Its value is 0.44.

What about the CFU/ml (Exp#3 E3 Exp (laser treated)) of the same compound?
Its CFU/ml is 7.08E+07 CFU/ml.

And the AVG (Exp#3 E3 Exp (laser treated))?
The AVG was 23.6 CFU.

And the CFU (Exp#3 E3 Exp (laser treated))?
Its CFU is 15 CFU and 24 CFU and 26 CFU and 27 CFU.

What about the “Laser Effect (+M)” value (Exp#3 F3, laser Exp / Cont) of the same compound?
Its value is 0.18.

What about the “Meth Effect” value (Exp#3 F3 Cont (no laser)) of the same compound?
The value was 0.73.

And the CFU/ml (Exp#3 F3 Cont (no laser))?
Its CFU/ml is 1.60E+08 CFU/ml.

What about the AVG (Exp#3 F3 Cont (no laser)) of the same compound?
The AVG was 53.2 CFU.

What about the “Meth Effect” value (Exp#3 F3 Exp (laser treated)) of the same compound?
Its value is 0.35.

And the CFU/ml (Exp#3 F3 Exp (laser treated))?
The CFU/ml was 2.94E+07 CFU/ml.

What about the AVG (Exp#3 F3 Exp (laser treated)) of the same compound?
Its AVG is 9.8 CFU.

And the “Laser Effect (+M)” value (Exp#3 G3, laser Exp / Cont)?
Its value is 0.12.

And the “Meth Effect” value (Exp#3 G3 Cont (no laser))?
Its value is 1.17.

And the CFU/ml (Exp#3 G3 Cont (no laser))?
Its CFU/ml is 2.03E+08 CFU/ml.

What about the AVG (Exp#3 G3 Cont (no laser)) of the same compound?
Its AVG is 67.6 CFU.

What about the “Meth Effect” value (Exp#3 G3 Exp (laser treated)) of the same compound?
Its value is 0.37.

What about the CFU/ml (Exp#3 G3 Exp (laser treated)) of the same compound?
The CFU/ml was 2.52E+07 CFU/ml.

And the AVG (Exp#3 G3 Exp (laser treated))?
The AVG was 8.4 CFU.

And the “Laser Effect (+M)” value (Exp#3 H3, laser Exp / Cont)?
Its value is 0.11.

And the “Meth Effect” value (Exp#3 H3 Cont (no laser))?
The value was 1.04.

And the CFU/ml (Exp#3 H3 Cont (no laser))?
The CFU/ml was 2.26E+08 CFU/ml.

And the AVG (Exp#3 H3 Cont (no laser))?
The AVG was 75.2 CFU.

What about the “Meth Effect” value (Exp#3 H3 Exp (laser treated)) of the same compound?
The value was 0.35.

And the CFU/ml (Exp#3 H3 Exp (laser treated))?
Its CFU/ml is 2.52E+07 CFU/ml.

And the AVG (Exp#3 H3 Exp (laser treated))?
Its AVG is 8.4 CFU.

What about the “synergistic effect of NIMELS with antibiotic in growth inhibition of MRSA colonies” value (FIG. 17) of the same compound?
The value was “being potentiated by sub-lethal NIMELS dosimetry”.
